Activity calls are given as the source filed them. The calls are words filed in the database; no cut-off is given here.
Assays:
[1] = molecular target: T1, Ubiquitin thioesterase OTUB1 (Homo sapiens, UniProt Q96FW1); assay: Inhibition of N-terminal His-6 tagged OTUB1 (40 to 271 residues) (unknown origin) expressed in Escherichia coli BL21 (DE3) cells at […] using Ub-Rho measured after 0.5 to 3 hrs by fluorescence based Plate reader method relative to control; settings: dose 2.5 µM, time 0.5-3 hrs
T1 sequence (Q96FW1 whole entry, the tested form may be a part): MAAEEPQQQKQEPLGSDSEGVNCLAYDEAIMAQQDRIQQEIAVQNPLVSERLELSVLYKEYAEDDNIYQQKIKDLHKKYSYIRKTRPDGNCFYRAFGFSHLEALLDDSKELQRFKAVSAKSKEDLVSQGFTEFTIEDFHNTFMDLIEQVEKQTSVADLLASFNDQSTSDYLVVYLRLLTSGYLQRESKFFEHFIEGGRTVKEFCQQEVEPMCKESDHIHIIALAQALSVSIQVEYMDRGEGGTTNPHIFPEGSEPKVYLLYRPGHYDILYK

[2] = molecular target: T1, Ubiquitin thioesterase OTUB1; assay: Inhibition of N-terminal His-6 tagged OTUB1 (40 to 271 residues) (unknown origin) expressed in Escherichia coli BL21 (DE3) cells at 10 nM using Ub-Rho measured after 0.5 to 3 hrs by fluorescence based Plate reader method relative to control; settings: time 0.5-3 hrs, values are per cent of control
[3] = molecular target: T1, Ubiquitin thioesterase OTUB1; assay: Inhibition of N-terminal His-6 tagged OTUB1 (40 to 271 residues) (unknown origin) expressed in Escherichia coli BL21 (DE3) cells at 100 nM using Ub-Rho measured after 0.5 to 3 hrs by fluorescence based Plate reader method relative to control; settings: time 0.5-3 hrs, values are per cent of control
[4] = molecular target: T2, Ubiquitin carboxyl-terminal hydrolase 8 (Homo sapiens) (UniProt P40818); assay: Inhibition of N-terminal His-6 tagged USP8 (734 to 1110 residues) (unknown origin) expressed in Escherichia coli BL21 (DE3) cells at 10 nM measured after 3 hrs by fluorescence based Plate reader method relative to control; settings: values are per cent of control
T2 sequence (whole entry): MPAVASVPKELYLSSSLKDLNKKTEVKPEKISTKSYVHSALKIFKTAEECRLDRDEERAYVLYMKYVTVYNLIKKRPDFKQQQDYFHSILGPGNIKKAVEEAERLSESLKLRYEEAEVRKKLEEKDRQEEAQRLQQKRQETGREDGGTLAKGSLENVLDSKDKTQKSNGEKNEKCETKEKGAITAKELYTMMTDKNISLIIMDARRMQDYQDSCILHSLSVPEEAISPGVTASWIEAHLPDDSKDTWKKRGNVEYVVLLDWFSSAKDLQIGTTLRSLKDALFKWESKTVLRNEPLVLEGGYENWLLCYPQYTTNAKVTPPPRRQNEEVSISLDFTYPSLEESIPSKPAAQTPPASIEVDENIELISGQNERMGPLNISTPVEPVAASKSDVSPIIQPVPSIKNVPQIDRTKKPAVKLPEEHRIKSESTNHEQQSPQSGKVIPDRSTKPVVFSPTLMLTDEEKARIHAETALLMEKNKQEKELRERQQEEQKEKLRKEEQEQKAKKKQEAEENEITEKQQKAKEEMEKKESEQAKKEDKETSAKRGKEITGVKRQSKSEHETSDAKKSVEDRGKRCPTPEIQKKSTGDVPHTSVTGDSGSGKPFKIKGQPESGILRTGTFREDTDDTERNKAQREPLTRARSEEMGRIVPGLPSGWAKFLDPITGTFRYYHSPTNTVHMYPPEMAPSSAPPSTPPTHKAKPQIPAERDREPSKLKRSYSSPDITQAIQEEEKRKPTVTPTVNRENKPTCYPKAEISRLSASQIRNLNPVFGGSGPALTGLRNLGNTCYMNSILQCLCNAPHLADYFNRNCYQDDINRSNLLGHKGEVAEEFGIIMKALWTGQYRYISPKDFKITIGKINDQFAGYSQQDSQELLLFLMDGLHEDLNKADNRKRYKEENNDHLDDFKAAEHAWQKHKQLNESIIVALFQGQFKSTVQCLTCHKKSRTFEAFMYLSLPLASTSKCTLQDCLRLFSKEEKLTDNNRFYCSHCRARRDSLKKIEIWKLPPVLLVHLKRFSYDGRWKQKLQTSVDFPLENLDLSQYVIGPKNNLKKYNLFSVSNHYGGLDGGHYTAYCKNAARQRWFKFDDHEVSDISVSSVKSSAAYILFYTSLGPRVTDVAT

[5] = molecular target: T2, Ubiquitin carboxyl-terminal hydrolase 8 (Homo sapiens); assay: Inhibition of N-terminal His-6 tagged USP8 (734 to 1110 residues) (unknown origin) expressed in Escherichia coli BL21 (DE3) cells at 100 nM measured after 3 hrs by fluorescence based Plate reader method relative to control; settings: values are per cent of control
[6] = Aqueous solubility of the compound measured after 24 hr by […] LC-MS/MS analysis; format: physicochemical; settings: buffer
[7] = molecular target: T1, Ubiquitin thioesterase OTUB1; assay: Inhibition of N-terminal His-6 tagged OTUB1 (40 to 271 residues) (unknown origin) expressed in Escherichia coli BL21 (DE3) cells using Ub-Rho measured after 0.5 to 3 hrs by fluorescence based Plate reader method
[8] = molecular target: T1, Ubiquitin thioesterase OTUB1; assay: Binding affinity to OTUB1 in HEK293T cells at 5 uM preincubated for 30 mins followed by UV irradiation and measured after 20 mins by Western blot assay; format: cell-based; settings: time 50.0 min
[9] = molecular target: T1, Ubiquitin thioesterase OTUB1; assay: Binding affinity to OTUB1 in HEK293T cells at […] preincubated for 30 mins followed by UV irradiation and measured after 20 mins by Western blot analysis; format: cell-based; settings: dose 2.5 µM, time 50.0 min
[10] = molecular target: T1, Ubiquitin thioesterase OTUB1; assay: Binding affinity to OTUB1 in HEK293T cells at 1 uM preincubated for 2 hrs followed by UV irradiation and measured after 20 mins by silver staining based gel electrophoresis assay; format: cell-based; settings: time 140.0 min
[11] = molecular target: T1, Ubiquitin thioesterase OTUB1; assay: Binding affinity to OTUB1 in HEK293T cells at 0.5 uM preincubated for 2 hrs followed by UV irradiation and measured after 20 mins by Western blot analysis; format: cell-based; settings: time 140.0 min

SMILES | inhibition [1] [%] | residual activity [2] [%] | residual activity [3] [%] | residual activity [4] [%] | residual activity [5] [%] | solubility [6] | IC50 [7] [µM] | Activity [8] | Activity [9] | Activity [10] | Activity [11]
O=C1c2ccccc2C(=O)c2oc(-c3ccccc3)nc21 | 100 | – | – | – | – | – | – | – | – | – | –
CN1CCN(CCOc2ccc(Cl)c(-c3nc4c(o3)C(=O)c3ccccc3C4=O)c2F)CC1 | – | 14.4 | 7.2 | 33.1 | 32.6 | Soluble | – | – | – | – | –
CN1CC[C@@H](Oc2cc(-c3nc4c(o3)C(=O)c3ccccc3C4=O)ccc2Cl)C1 | – | 23.6 | 12.8 | 51.8 | 24.9 | Soluble | – | – | – | – | –
CN1CCN(CCOc2ccc(F)c(-c3nc4c(o3)C(=O)c3ccccc3C4=O)c2Cl)CC1 | – | 17 | 8.7 | 26.7 | 21.4 | Soluble | – | – | – | – | –
O=C1c2ccccc2C(=O)c2oc(-c3cccc(C(F)(F)F)c3)nc21 | – | 23.1 | 13.2 | 54.4 | 21.6 | Insoluble | – | – | – | – | –
C#CCCC1(CCN2CC[C@@H](Oc3cccc(-c4nc5c([nH]4)C(=O)c4ccccc4C5=O)c3)C2)N=N1 | – | – | – | – | – | – | 6.12 | Active | – | – | –
C#CCCC1(CCN2CC[C@@H](Oc3cccc(-c4nc5c(o4)C(=O)c4ccccc4C5=O)c3)C2)N=N1 | – | – | – | – | – | – | 0.037 | – | Active | Active | Active
O=C1c2ccccc2C(=O)c2oc(-c3c(F)cccc3Cl)nc21 | – | 37.3 | 9.6 | 62.9 | 26.5 | Insoluble | – | – | – | – | –
O=C1c2ccccc2C(=O)c2oc(-c3cccc(F)c3)nc21 | – | 55.3 | 26.3 | 59.1 | 37.2 | – | – | – | – | – | –
COc1ccc(-c2nc3c(o2)C(=O)c2ccccc2C3=O)c(C(F)(F)F)c1 | – | 84.9 | 41.7 | 80.5 | 18.6 | – | – | – | – | – | –
CN1CCN(CCOc2cccc(-c3nc4c(o3)C(=O)c3ccccc3C4=O)c2)CC1 | – | 66.8 | 36.9 | 76.4 | 53.6 | – | – | – | – | – | –
COc1cc(Cl)cc(-c2nc3c(o2)C(=O)c2ccccc2C3=O)c1 | – | 74.4 | 40.7 | 49 | 24 | – | – | – | – | – | –
CN1CC[C@H](Oc2cccc(-c3nc4c(o3)C(=O)c3ccccc3C4=O)c2)C1 | – | 75.6 | 38.7 | 60.2 | 29.8 | – | – | – | – | – | –
COc1cc(F)cc(-c2nc3c([nH]2)C(=O)c2ccccc2C3=O)c1 | – | 84.8 | 77.9 | 91.4 | 85.2 | – | – | – | – | – | –
O=C1c2ccccc2C(=O)c2oc(-c3ccc(F)cc3)nc21 | – | 55.8 | 24.6 | 53.5 | 23.3 | – | – | – | – | – | –
O=C1c2ccccc2C(=O)c2oc(-c3ccccc3F)nc21 | – | 55.5 | 27.3 | 37.1 | 19.2 | – | – | – | – | – | –
CN1CC[C@@H](Oc2ccc(-c3nc4c(o3)C(=O)c3ccccc3C4=O)c(C(F)(F)F)c2)C1 | – | 74.7 | 42.4 | 63.2 | 42.5 | – | – | – | – | – | –
CN(C)CCOc1cccc(-c2nc3c([nH]2)C(=O)c2ccccc2C3=O)c1 | – | 86.5 | 80.4 | 88.7 | 86.4 | – | – | – | – | – | –
N#Cc1ccc(-c2nc3c(o2)C(=O)c2ccccc2C3=O)cc1 | – | 46.4 | 15.2 | 38.9 | 20.8 | Insoluble | – | – | – | – | –
CN1CC[C@@H](Oc2ccc(-c3nc4c(o3)C(=O)c3ccccc3C4=O)cc2Cl)C1 | – | 69.8 | 38.5 | 65.5 | 31.2 | – | – | – | – | – | –
O=C1c2ccccc2C(=O)c2oc(-c3c(F)ccc(F)c3Cl)nc21 | – | 23.3 | 10.4 | 52.4 | 28.4 | Insoluble | – | – | – | – | –
O=C1c2ccccc2C(=O)c2oc(-c3c(F)ccc(F)c3F)nc21 | – | 40.7 | 15.6 | 36.6 | 21.9 | – | – | – | – | – | –
O=C1c2ccccc2C(=O)c2oc(-c3cc(Cl)ccc3Cl)nc21 | – | 52.7 | 25.2 | 44.5 | 32.2 | – | – | – | – | – | –
O=C1c2ccccc2C(=O)c2oc(-c3ccccc3C(F)(F)F)nc21 | – | 62.6 | 25.8 | 50.7 | 17.7 | – | – | – | – | – | –
COc1ccc(F)c(-c2nc3c(o2)C(=O)c2ccccc2C3=O)c1Cl | – | 23.3 | 20.5 | 41.5 | 23.6 | – | – | – | – | – | –

Source: ChEMBL document CHEMBL5108067, “Discovery of Potent OTUB1/USP8 Dual Inhibitors Targeting Proteostasis in Non-Small-Cell Lung Cancer” (J Med Chem, 2022)
